From patent US9492471B2, “Methods of treating a disease or disorder associated with Bruton'S Tyrosine Kinase” (Celgene Avilomics Research, Inc., priority 2013, dated 2016) come the findings set out here.

Common to all, as to assay: HotSpot kinase profiling
Common to all, as to assay type: biochemical

The target in test [1] is T1, GSK3b (Homo sapiens, UniProt P49841).
T1 construct: purchased Reaction Biology Corp
The essentials: (§1)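 Radiometric kinase assay with P81 filter capture; each kinase was added to fresh substrate plus cofactors in reaction buffer and incubated 2 h at room temperature. Unreacted phosphate was washed off with 0.1% phosphoric acid before detection; percent inhibition is relative to DMSO control, averaged over replicates.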

Test [2] has as its target T2, HIPK4 (Homo sapiens, UniProt Q8NE63).
T2 construct: purchased Reaction Biology Corp
T2 sequence (Q8NE63 1-616): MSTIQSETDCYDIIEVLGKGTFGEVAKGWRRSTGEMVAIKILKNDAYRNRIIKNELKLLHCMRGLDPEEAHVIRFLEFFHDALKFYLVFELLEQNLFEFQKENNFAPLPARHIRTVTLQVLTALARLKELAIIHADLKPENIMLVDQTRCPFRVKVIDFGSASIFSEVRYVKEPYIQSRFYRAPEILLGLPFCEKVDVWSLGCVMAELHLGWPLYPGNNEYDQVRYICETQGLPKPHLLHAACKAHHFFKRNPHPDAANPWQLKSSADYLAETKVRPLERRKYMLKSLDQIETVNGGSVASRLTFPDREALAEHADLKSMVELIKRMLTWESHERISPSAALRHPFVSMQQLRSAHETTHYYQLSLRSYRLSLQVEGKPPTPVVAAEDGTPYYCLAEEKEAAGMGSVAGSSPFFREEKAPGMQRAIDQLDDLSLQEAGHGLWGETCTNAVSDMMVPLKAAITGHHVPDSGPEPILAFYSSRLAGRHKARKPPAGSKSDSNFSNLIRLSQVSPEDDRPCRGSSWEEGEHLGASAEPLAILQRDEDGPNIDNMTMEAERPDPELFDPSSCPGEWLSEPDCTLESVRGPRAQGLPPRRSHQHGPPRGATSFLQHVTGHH
The gist of the method: as §1

In test [3] the target is T3, PKCg (Homo sapiens, UniProt P05129).
T3 construct: purchased Reaction Biology Corp
The gist of the method: as §1

Test [4] concerns the target T4, ULK3 (Homo sapiens, UniProt Q6PHR2).
T4 construct: purchased Reaction Biology Corp
T4 sequence (Q6PHR2 1-472): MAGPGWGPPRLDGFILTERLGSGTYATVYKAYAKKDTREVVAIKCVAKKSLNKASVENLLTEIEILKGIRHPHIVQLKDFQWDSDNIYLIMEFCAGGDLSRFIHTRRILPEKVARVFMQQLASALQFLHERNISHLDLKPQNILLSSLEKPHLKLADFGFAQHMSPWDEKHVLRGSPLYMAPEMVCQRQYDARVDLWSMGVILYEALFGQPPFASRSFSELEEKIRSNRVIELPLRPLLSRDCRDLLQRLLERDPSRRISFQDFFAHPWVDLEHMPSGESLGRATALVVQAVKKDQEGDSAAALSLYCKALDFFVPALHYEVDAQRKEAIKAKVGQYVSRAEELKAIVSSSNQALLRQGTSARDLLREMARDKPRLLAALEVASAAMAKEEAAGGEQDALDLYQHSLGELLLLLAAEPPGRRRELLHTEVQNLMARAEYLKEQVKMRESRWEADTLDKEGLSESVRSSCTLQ
The essentials:
as §1

Setting [5] is: read-out: % Enzyme Activity (relative to DMSO controls) Run 1.
Setting [6] is: read-out: % Enzyme Activity (relative to DMSO controls) Run 2.

SMILES strings stand for the structures. Like-named read-outs stand apart in the source and are kept apart here.

T1 sequence (P49841 whole entry): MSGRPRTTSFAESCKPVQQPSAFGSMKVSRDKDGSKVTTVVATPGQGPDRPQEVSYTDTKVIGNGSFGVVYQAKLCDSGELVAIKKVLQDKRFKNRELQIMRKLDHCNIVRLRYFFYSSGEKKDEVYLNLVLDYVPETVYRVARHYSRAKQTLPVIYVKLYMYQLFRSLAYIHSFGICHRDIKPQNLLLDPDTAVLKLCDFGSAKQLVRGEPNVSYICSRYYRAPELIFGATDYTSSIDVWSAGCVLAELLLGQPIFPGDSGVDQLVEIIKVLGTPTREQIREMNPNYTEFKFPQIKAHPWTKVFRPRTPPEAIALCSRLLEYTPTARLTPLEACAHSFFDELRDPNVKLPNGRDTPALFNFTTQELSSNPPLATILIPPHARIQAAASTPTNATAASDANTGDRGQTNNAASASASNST

Usually inhibition stands for the drop in the measured response relative to a control, in per cent. For the molecule `C=CC(=O)Nc1cccc(Nc2nc(Nc3ccc(OCCOC)c(F)c3)ncc2F)c1` [Compound 2], the inhibition at 3 µM is -22.2% in test [1], 6.31% in test [2], 16% in test [3] and 21.7% in test [4]. Also, the remaining activity at 3 µM in test [1] (setting [5]) is 122%; in test [1] (setting [6]), 123%; in test [2] (setting [5]), 93.6%; in test [2] (setting [6]), 93.8%; in test [3] (setting [5]) it was 83.9%; in test [3] (setting [6]), 84.2%. The remaining activity at 3 µM in test [4] (setting [5]) came out at 79.6%; in test [4] (setting [6]) it was 77%.
